Biological target: KRas (Homo sapiens, UniProt P01116, G12C)
Test: KRas degradation in NCI-H2030 cells by Western blot, normalized to GAPDH (data of Table 14)
Type: cell-based
Set-up: host or cells: NCI-H2030
Settings: for Percent Degradation at Indicated Concentration (μM): H2030; for Dmax: NCI-H2030
Experimental: Cell Lines, Antibodies, and Reagents. NCI-H2030 (CRL-5914) and SW1573 (CRL-2170) cells were purchased from ATCC. Both cell lines are homozygous for the G12C mutation in KRas. NCI-H2030 cells were cultured in RPMI-1640 medium containing 1% penicillin-streptomycin and 10% fetal bovine serum (FBS). SW1573 cells were cultured in DMEM containing 1% penicillin-streptomycin and 10% FBS. The KRas detection antibody (Cat. No. LS-C175665) was purchased from LifeSpan Biosciences and was used at a dilution of 1:2000. GAPDH was detected using an antibody purchased from Cell Signaling Technology (Cat. No. 5174) and was diluted 1:3000. Secondary anti-mouse and anti-rabbit detection antibodies were purchased from Cell Signaling Technology (Cat. Nos. 7076 and 7074, respectively).
Compound Treatment and Western Blotting of the Data of Table 14. Either NCI-H2030 or SW1573 cells were plated in 12-well plates and allowed to adhere overnight at 37° C. in an incubator containing 5% CO2. The following day, the medium was replaced with the appropriate medium lacking FBS to induce starvation. Cells were returned to the incubator for an additional 24 hours following media exchange. […] Cells were treated with VHL-based compounds for 24 hours and all other compounds for 72 hours. Following treatment, cells were lysed in RIPA buffer (Thermo Fisher Cat. No. 89900) containing phosphatase (Thermo Fisher Cat. No. 1861277) and protease (Thermo Fisher Cat. No. 78429) inhibitor cocktails. Lysates were cleared at 13,000 rpm for 15 minutes and supernatants were assayed for total protein concentration using the Pierce BCA assay system (Thermo Fisher Cat. No. 23225). For each sample, 10 μg total protein was resolved on a 12% Bis-Tris gel and then transferred to a nitrocellulose membrane. After blocking in 3% BSA in TBST (Tris-buffered Saline with 0.1% Tween-20) for 1 hour at room temperature, membranes were probed with the primary antibody (LS Bio Cat. No. LS-C175665) overnight at 4° C. After incubation with the secondary antibody, the following day membranes were visualized using the SuperSignal™ West Femto substrate (Thermo Fisher Cat. No. 34095). The KRas signal in each lane was normalized to GAPDH and percent degradation was either estimated as less than 25% by visual inspection (C in Table 13) or quantitated relative to the DMSO control lane using BIO-RAD Image Lab 5.2.1, and all data was plotted using GraphPad PRISM 6.07.
DC50 is the half-maximal degradation concentration—i.e., the concentration at which 50% degradation is observed. DMax is the maximum degradation efficacy is achieved—i.e., the maximal degradation observed) degradation data.

Row | Percent Degradation at Indicated Concentration (μM) (0.3 μM) | Percent Degradation at Indicated Concentration (μM) (1 μM) | Percent Degradation at Indicated Concentration (μM) (3 μM) | Dmax [%] | SMILES
1 | C (Percent Degradation: C ≤ 35) | C (Percent Degradation: C ≤ 35) | C (Percent Degradation: C ≤ 35) | ≤ 35 | C=CC(=O)N1CCN(c2nc(NCCC(=O)N(C)CCOCCOCC(=O)N[C@H](C(=O)N3C[C@H](O)C[C@H]3C(=O)N[C@@H](C)c3ccc(-c4scnc4C)cc3)C(C)(C)C)nc3c(F)c(-c4c(O)cccc4F)c(Cl)cc23)CC1 (atropisomer, axis not shown) [compound 208, (2S,4R)-1-((S)-15-(((R)-4-(4-acryloylpiperazin-1-yl)-6-chloro-8-fluoro-7-(2-fluoro-6-hydroxyphenyl)quinazolin-2-yl)amino)-2-(tert-butyl)-12-methyl-4,13-dioxo-6,9-dioxa-3,12-diazapentadecanoyl)-4-hydroxy-N-((S)-1-(4-(4-methylthiazol-5-yl)phenyl)ethyl)pyrrolidine-2-carboxamide]
2 | – | – | C (Percent Degradation: C ≤ 35) | – | C=CC(=O)N1CCN(c2nc(NCCC(=O)N(C)CCOCCOCCOCC(=O)N[C@H](C(=O)N3C[C@H](O)C[C@H]3C(=O)N[C@@H](C)c3ccc(-c4scnc4C)cc3)C(C)(C)C)nc3c(F)c(-c4c(O)cccc4F)c(Cl)cc23)CC1 (atropisomer, axis not shown) [compound 209, (2S,4R)-1-((S)-18-((4-(4-acryloylpiperazin-1-yl)-6-chloro-8-fluoro-7-((S)-2-fluoro-6-hydroxyphenyl)quinazolin-2-yl)amino)-2-(tert-butyl)-15-methyl-4,16-dioxo-6,9,12-trioxa-3,15-diazaoctadecanoyl)-4-hydroxy-N-((S)-1-(4-(4-methylthiazol-5-yl)phenyl)ethyl)pyrrolidine-2-carboxamide]
3 | C (Percent Degradation: C ≤ 35) | C (Percent Degradation: C ≤ 35) | C (Percent Degradation: C ≤ 35) | ≤ 35 | C=CC(=O)N1CCN(c2nc(NCCC(=O)N(C)CCOCCOCCOCC(=O)N[C@H](C(=O)N3C[C@H](O)C[C@H]3C(=O)N[C@@H](C)c3ccc(-c4scnc4C)cc3)C(C)(C)C)nc3c(F)c(-c4c(O)cccc4F)c(Cl)cc23)CC1 (atropisomer, axis not shown) [compound 210, (2S,4R)-1-((S)-18-((4-(4-acryloylpiperazin-1-yl)-6-chloro-8-fluoro-7-((R)-2-fluoro-6-hydroxyphenyl)quinazolin-2-yl)amino)-2-(tert-butyl)-15-methyl-4,16-dioxo-6,9,12-trioxa-3,15-diazaoctadecanoyl)-4-hydroxy-N-((S)-1-(4-(4-methylthiazol-5-yl)phenyl)ethyl)pyrrolidine-2-carboxamide]
4 | – | – | C (Percent Degradation: C ≤ 35) | – | C=CC(=O)N1CCN(c2nc(NCCC(=O)N(C)CCOCCOCCOCCOCC(=O)N[C@H](C(=O)N3C[C@H](O)C[C@H]3C(=O)N[C@@H](C)c3ccc(-c4scnc4C)cc3)C(C)(C)C)nc3c(F)c(-c4c(O)cccc4F)c(Cl)cc23)CC1 (atropisomer, axis not shown) [compound 211, (2S,4R)-1-((S)-21-(((S)-4-(4-acryloylpiperazin-1-yl)-6-chloro-8-fluoro-7-(2-fluoro-6-hydroxyphenyl)quinazolin-2-yl)amino)-2-(tert-butyl)-18-methyl-4,19-dioxo-6,9,12,15-tetraoxa-3,18-diazahenicosanoyl)-4-hydroxy-N-((S)-1-(4-(4-methylthiazol-5-yl)phenyl)ethyl)pyrrolidine-2-carboxamide]
